Measurements reported in US20240299321A1, “METHODS TO SENSITIZE CANCER CELLS AND STANDARDIZED SCREENING ASSAY FOR IMMUNOTHERAPY” (THE TRUSTEES OF INDIANA UNIVERSITY, priority 2020, published 2024).

Experiments:
[1] = system: NY-ESO-1+ MDA-MB-468 cells; assay: HLA presentation on NY-ESO-1+ MDA-MB-468 cells (flow cytometry, confocal); assay type: cell-based, human; conditions: for HLA-A2 antigen presentation (confocal images): 1 μM, 48 h, FIG. 4F; for HLA levels on MDA-MB-468 cells (MFI): flow cytometry
Procedure: Flow Cytometry: Sample acquisition was done using LSR Fortessa X-20 or LSR Fortessa (BD Biosciences) and data were analyzed using FlowJo v10.6.0 software. Live/dead cells were assessed using SYTOX Blue (Invitrogen, Dilution 1:100). For cell staining involving cell permeabilization, the BD cytofix/cytoperm fixation permeabilization kit (BD Biosciences) was used. The PBS buffer containing 0.5% BSA and 10% FBS were used to dilute antibodies. The antibodies used in flow cytometrical analyses include: […] The compensation was performed using CompBeads for negative control (BD Biosciences), anti-mouse Ig,κ (BD Biosciences), anti-rat Ig,κ and anti-hamster Ig,κ (BD Biosciences). The beads were stained with the corresponding antibodies separately under the same conditions as the cells were stained in each experiment. SYTOX Blue reagent was used to stain dead cells. Half of the live cells were incubated at 60° C. for 2 min to enable membrane permeable and then mixed with the other half incubated at 37° C. The mixed cells were stained with SYTOX Blue for 15 mins and used for compensation. For all the data analysis, doublet exclusion was performed and only single cells were analyzed. Dead cell populations were also excluded from analysis if the experiment were not involved in cell killing. One million events per sample were collected for immune profiling analysis in the animal experiments. For all in vitro experiments, at least ten thousand events per sample were collected for flow cytometry analysis. Confocal Microscopy: OVA+ EO771 and NY-ESO-1+ MDA-MB-468 cells were seeded at 5×10^3 cell/well in the 8-well slide (Millicell EZ slide, […]) and treated with 1 μM drug (GSK-LSD1, CUDC-101 or BML-210) for 48 h. FITC-conjugated anti-mouse H-2Kb antibody (Biolegend, dilution 1:50) and FITC-conjugated anti-HLA-A2 (Biolegend, dilution 1:50) were used to stain OVA+ EO771 and NY-ESO-1+ MDA-MB-468 cells, respectively, for 2 h. For cell nucleus staining, cells were incubated with 0.5% Triton X-100/PBS for 10 min and stained with DAPI (Sigma-Aldrich, dilution 1:100) for 15 min. The slides were rinsed in PBS twice and mounted with ProLong Gold anti-fade mountant (Invitrogen, P36930). Fluorescence images were captured using Leica TCS SP8 (upright high speed multiphoton) confocal imaging system. 3-D images were analyzed by the Imaris x64 8.1.2 software.

[2] = system: EO771 (Luc+OVA+) tumor organoids; assay: Toxicity on tumor organoids without T cells (WST-1 viability); assay type: cell-based, mouse; conditions: no T cells
Procedure: Tumor cell viability assay: For 2D tumor cell culture, tumor cells were seeded into 96 well plates at 2,000 cells per well and cultured for 72 h. For tumor organoids, tumor organoids with diameter between 70 and 150 μm were seeded at 50 organoids per well into 96-well microplates with ultra-low attachment surface (Corning). Cells or tumor organoids were treated with indicated compound at the final concentration of 1 μM. After 3-day culture, tumor organoids were dissociated into single cells using TrypLE Express (Corning) at 37° C. with a shaking velocity of 500 rpm on a thermomixer (Eppendorf) for 15 min. The 96-well microplates were added with 10 μl/well of Premix WST-1 reagent (TaKaRa) and incubated for 1 h. The microplates were read at absorbance of 450 nm on the Epoch microreader (BioTek). The toxicity of the epigenetic drugs was quantified using the premix WST-1 reagent according to the manufacturer's protocol.

SMILES	HLA-A2 antigen presentation (confocal images) [1]	HLA levels on MDA-MB-468 cells (MFI) [1]	effect on the tumor organoids in the absence of T cells [2]
Nc1ccccc1NC(=O)CCCCCCC(=O)Nc1ccccc1 [BML-210]	boosted up the antigen presentation	much higher levels	no notable effect
C#Cc1cccc(Nc2ncnc3cc(OC)c(OCCCCCCC(=O)NO)cc23)c1 [CUDC-101]	boosted up the antigen presentation	increased	no notable effect
c1ccc([C@@H]2C[C@H]2NC2CCNCC2)cc1 [GSK-LSD1]	boosted up the antigen presentation	increased	no notable effect
